Source: patent publication US11485657B2, “Biological remediation of groundwater using an algal photobioreactor system” (priority 2019, dated 2022)

System: C. subellipsoidea
Test: Paraoxon hydrolysis in C. subellipsoidea cultures assayed by p-nitrophenol production (absorbance 408 nm)
Type: cell-based, Coccomyxa subellipsoidea
Details: for hydrolysis of paraoxon into p-nitrophenol with oligomycin and rotenone in the dark: oligomycin 20 μg/mL and rotenone 20 μg/mL together, samples at 12 h, 24 h, 48 h

Row | SMILES | hydrolysis of paraoxon into p-nitrophenol with oligomycin and rotenone in the dark (paraoxon 0.25 mg/mL) | effect on paraoxon hydrolysis, DCMU and paraoxon in the light (actively growing cultures, light) | production of p-nitrophenol from paraoxon in the presence of DCMU (paraoxon 0.25 mg/mL, 12 h, light, versus absence of DCMU)
1 | CC[C@H]1/C=C/C=C/C[C@@H](C)[C@H](O)[C@@](C)(O)C(=O)[C@@H](C)[C@H](O)[C@@H](C)C(=O)[C@@H](C)[C@H](O)[C@@H](C)/C=C/C(=O)O[C@@H]2[C@H](C)[C@H](CC1)O[C@]1(CC[C@H](C)[C@H](C[C@@H](C)O)O1)[C@H]2C [oligomycin] | not hydrolyzed |  | 
2 | C=C(C)[C@H]1Cc2c(ccc3c2O[C@@H]2COc4cc(OC)c(OC)cc4[C@@H]2C3=O)O1 [rotenone] | not hydrolyzed |  | 
3 | CN(C)C(=O)Nc1ccc(Cl)c(Cl)c1 [DCMU, 3-(3,4-dichlorophenyl)-1,1-dimethylurea] |  | blocked hydrolysis | decreased nearly two-fold
